Measurements as given in the supplement of paper PMC10307832.

Experiments:
Assay in all cases: relative viability (nuclei count vs DMSO), 5 days (fraction); higher = more cells survive
[1] = compound: CC1=CC=C(C=C1)C(=O)CN2C3=C(CCCC3)SC2=N [Pifithrin_alpha] + O=C(c1cc(Cc2n[nH]c(=O)c3ccccc23)ccc1F)N1CCN(C(=O)C2CC2)CC1 [Olaparib] (partner 8 µM)
Procedure, shortened: (§1)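 Relative viability equals treated-well nuclei counts divided by vehicle-well nuclei counts. Counts came from 4× images of lung cancer cell lines grown in 1536-well plates for 5 days after pin-tool dosing on the day after seeding. Dosing used one drug alone or a fixed anchor-drug dose plus five library-drug doses (not always all listed) in √10 steps, and values are medians of duplicate plates.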

[2] = compound: CC1=CC=C(C=C1)C(=O)CN2C3=C(CCCC3)SC2=N [Pifithrin_alpha] + C[C@]1(O)C[C@@H](c2nc(-c3ccc4ccc(-c5ccccc5)nc4c3)c3c(N)nccn32)C1 [Linsitinib] (partner 1 µM)
Procedure, shortened: as §1

Axitinib + Dasatinib = compound: CNC(=O)c1ccccc1Sc1ccc2c(/C=C/c3ccccn3)n[nH]c2c1 [Axitinib] + Cc1nc(Nc2ncc(C(=O)Nc3c(C)cccc3Cl)s2)cc(N2CCN(CCO)CC2)n1 [Dasatinib] (partner 0.075 µM)
Procedure, shortened: as §1

Axitinib + Alpelisib = compound: CNC(=O)c1ccccc1Sc1ccc2c(/C=C/c3ccccn3)n[nH]c2c1 [Axitinib] + Cc1nc(NC(=O)N2CCC[C@H]2C(N)=O)sc1-c1ccnc(C(C)(C)C(F)(F)F)c1 [Alpelisib] (partner 2 µM)
Procedure, shortened: as §1

## NCI-H1793
[1]; first compound 1 µM
  relative viability: 1.01
[1]; first compound 3.162 µM
  relative viability: 0.757
[1]; first compound 10 µM
  relative viability: 0.798
[1]; first compound 31.62 µM
  relative viability: 0.365
[1]; first compound 100 µM
  relative viability: 0.649
[2]; first compound 1 µM
  relative viability: 0.896
[2]; first compound 3.162 µM
  relative viability: 0.7
[2]; first compound 10 µM
  relative viability: 0.812
[2]; first compound 31.62 µM
  relative viability: 0.787
[2]; first compound 100 µM
  relative viability: 0.964
Axitinib + Dasatinib; first compound 0.005 µM
  relative viability: 0.406
Axitinib + Dasatinib; first compound 0.01581 µM
  relative viability: 0.405
Axitinib + Dasatinib; first compound 0.05 µM
  relative viability: 0.394
Axitinib + Dasatinib; first compound 0.1581 µM
  relative viability: 0.293
Axitinib + Dasatinib; first compound 0.5 µM
  relative viability: 0.301
Axitinib + Alpelisib; first compound 0.005 µM
  relative viability: 0.667
Axitinib + Alpelisib; first compound 0.01581 µM
  relative viability: 0.701
Axitinib + Alpelisib; first compound 0.05 µM
  relative viability: 0.722
Axitinib + Alpelisib; first compound 0.1581 µM
  relative viability: 0.73
Axitinib + Alpelisib; first compound 0.5 µM
  relative viability: 0.676

## HCC-78
[1]; first compound 3.162 µM
  relative viability: 0.925
[1]; first compound 10 µM
  relative viability: 0.785
[1]; first compound 31.62 µM
  relative viability: 0.51
[1]; first compound 100 µM
  relative viability: 0.683
[2]; first compound 1 µM
  relative viability: 0.481
[2]; first compound 3.162 µM
  relative viability: 0.54
[2]; first compound 10 µM
  relative viability: 0.513
[2]; first compound 100 µM
  relative viability: 0.584
Axitinib + Dasatinib; first compound 0.005 µM
  relative viability: 0.328
Axitinib + Dasatinib; first compound 0.01581 µM
  relative viability: 0.288
Axitinib + Dasatinib; first compound 0.05 µM
  relative viability: 0.534
Axitinib + Dasatinib; first compound 0.1581 µM
  relative viability: 0.387
Axitinib + Dasatinib; first compound 0.5 µM
  relative viability: 0.329
Axitinib + Alpelisib; first compound 0.005 µM
  relative viability: 0.34
Axitinib + Alpelisib; first compound 0.01581 µM
  relative viability: 0.328
Axitinib + Alpelisib; first compound 0.05 µM
  relative viability: 0.3
Axitinib + Alpelisib; first compound 0.1581 µM
  relative viability: 0.322
Axitinib + Alpelisib; first compound 0.5 µM
  relative viability: 0.366

## NCI-H322M
[1]; first compound 1 µM
  relative viability: 0.74
[1]; first compound 3.162 µM
  relative viability: 0.715
[1]; first compound 10 µM
  relative viability: 0.723
[1]; first compound 31.62 µM
  relative viability: 0.468
[1]; first compound 100 µM
  relative viability: 0.559
[2]; first compound 1 µM
  relative viability: 0.85
[2]; first compound 3.162 µM
  relative viability: 0.898
[2]; first compound 10 µM
  relative viability: 0.902
[2]; first compound 31.62 µM
  relative viability: 0.821
[2]; first compound 100 µM
  relative viability: 1.04
Axitinib + Dasatinib; first compound 0.005 µM
  relative viability: 0.253
Axitinib + Dasatinib; first compound 0.01581 µM
  relative viability: 0.231
Axitinib + Dasatinib; first compound 0.05 µM
  relative viability: 0.239
Axitinib + Dasatinib; first compound 0.1581 µM
  relative viability: 0.259
Axitinib + Dasatinib; first compound 0.5 µM
  relative viability: 0.246
Axitinib + Alpelisib; first compound 0.005 µM
  relative viability: 0.834
Axitinib + Alpelisib; first compound 0.01581 µM
  relative viability: 0.688
Axitinib + Alpelisib; first compound 0.05 µM
  relative viability: 0.729
Axitinib + Alpelisib; first compound 0.1581 µM
  relative viability: 0.944
Axitinib + Alpelisib; first compound 0.5 µM
  relative viability: 0.893

## COR-L23
[1]; first compound 1 µM
  relative viability: 0.262
[1]; first compound 3.162 µM
  relative viability: 0.306
[1]; first compound 10 µM
  relative viability: 0.267
[1]; first compound 100 µM
  relative viability: 0.269
[2]; first compound 1 µM
  relative viability: 0.974
[2]; first compound 3.162 µM
  relative viability: 1.02
[2]; first compound 10 µM
  relative viability: 0.882
[2]; first compound 100 µM
  relative viability: 0.871
Axitinib + Dasatinib; first compound 0.005 µM
  relative viability: 0.53
Axitinib + Dasatinib; first compound 0.01581 µM
  relative viability: 0.542
Axitinib + Dasatinib; first compound 0.05 µM
  relative viability: 0.438
Axitinib + Dasatinib; first compound 0.1581 µM
  relative viability: 0.493
Axitinib + Dasatinib; first compound 0.5 µM
  relative viability: 0.674
Axitinib + Alpelisib; first compound 0.005 µM
  relative viability: 0.77
Axitinib + Alpelisib; first compound 0.01581 µM
  relative viability: 0.857
Axitinib + Alpelisib; first compound 0.05 µM
  relative viability: 0.78
Axitinib + Alpelisib; first compound 0.1581 µM
  relative viability: 0.83
Axitinib + Alpelisib; first compound 0.5 µM
  relative viability: 1.06

## 201T
[1]; first compound 1 µM
  relative viability: 0.843
[1]; first compound 3.162 µM
  relative viability: 0.891
[1]; first compound 10 µM
  relative viability: 0.601
[1]; first compound 31.62 µM
  relative viability: 0.564
[1]; first compound 100 µM
  relative viability: 0.619
[2]; first compound 1 µM
  relative viability: 0.956
[2]; first compound 3.162 µM
  relative viability: 0.792
[2]; first compound 10 µM
  relative viability: 0.744
[2]; first compound 31.62 µM
  relative viability: 0.689
[2]; first compound 100 µM
  relative viability: 0.731
Axitinib + Dasatinib; first compound 0.005 µM
  relative viability: 0.557
Axitinib + Dasatinib; first compound 0.01581 µM
  relative viability: 0.553
Axitinib + Dasatinib; first compound 0.05 µM
  relative viability: 0.567
Axitinib + Dasatinib; first compound 0.1581 µM
  relative viability: 0.526
Axitinib + Dasatinib; first compound 0.5 µM
  relative viability: 0.562
Axitinib + Alpelisib; first compound 0.005 µM
  relative viability: 1.01
Axitinib + Alpelisib; first compound 0.01581 µM
  relative viability: 0.959
Axitinib + Alpelisib; first compound 0.05 µM
  relative viability: 0.947
Axitinib + Alpelisib; first compound 0.1581 µM
  relative viability: 0.987
Axitinib + Alpelisib; first compound 0.5 µM
  relative viability: 0.972

## NCI-H2347
[1]; first compound 1 µM
  relative viability: 0.603
[1]; first compound 3.162 µM
  relative viability: 0.573
[1]; first compound 10 µM
  relative viability: 0.587
[1]; first compound 31.62 µM
  relative viability: 0.541
[1]; first compound 100 µM
  relative viability: 0.547
[2]; first compound 1 µM
  relative viability: 0.967
[2]; first compound 3.162 µM
  relative viability: 0.913
[2]; first compound 10 µM
  relative viability: 0.907
[2]; first compound 31.62 µM
  relative viability: 0.635
[2]; first compound 100 µM
  relative viability: 0.95
Axitinib + Dasatinib; first compound 0.005 µM
  relative viability: 0.304
Axitinib + Dasatinib; first compound 0.01581 µM
  relative viability: 0.324
Axitinib + Dasatinib; first compound 0.05 µM
  relative viability: 0.288
Axitinib + Dasatinib; first compound 0.1581 µM
  relative viability: 0.308
Axitinib + Dasatinib; first compound 0.5 µM
  relative viability: 0.323
Axitinib + Alpelisib; first compound 0.005 µM
  relative viability: 1.12
Axitinib + Alpelisib; first compound 0.01581 µM
  relative viability: 1.17
Axitinib + Alpelisib; first compound 0.05 µM
  relative viability: 1.05
Axitinib + Alpelisib; first compound 0.1581 µM
  relative viability: 1.01
Axitinib + Alpelisib; first compound 0.5 µM
  relative viability: 1.01

## LCLC-97TM1
[1]; first compound 3.162 µM
  relative viability: 0.39
[1]; first compound 10 µM
  relative viability: 0.33
[1]; first compound 100 µM
  relative viability: 0.289
[2]; first compound 3.162 µM
  relative viability: 0.207
[2]; first compound 10 µM
  relative viability: 0.206
[2]; first compound 100 µM
  relative viability: 0.225
Axitinib + Dasatinib; first compound 0.005 µM
  relative viability: 0.834
Axitinib + Dasatinib; first compound 0.01581 µM
  relative viability: 0.722
Axitinib + Dasatinib; first compound 0.05 µM
  relative viability: 0.857
Axitinib + Dasatinib; first compound 0.1581 µM
  relative viability: 0.753
Axitinib + Dasatinib; first compound 0.5 µM
  relative viability: 0.842
Axitinib + Alpelisib; first compound 0.005 µM
  relative viability: 0.252
Axitinib + Alpelisib; first compound 0.01581 µM
  relative viability: 0.285
Axitinib + Alpelisib; first compound 0.05 µM
  relative viability: 0.237
Axitinib + Alpelisib; first compound 0.1581 µM
  relative viability: 0.205
Axitinib + Alpelisib; first compound 0.5 µM
  relative viability: 0.247

## NCI-H2126
[1]; first compound 1 µM
  relative viability: 0.91
[1]; first compound 3.162 µM
  relative viability: 1.01
[1]; first compound 10 µM
  relative viability: 0.924
[1]; first compound 31.62 µM
  relative viability: 0.691
[1]; first compound 100 µM
  relative viability: 0.927
[2]; first compound 1 µM
  relative viability: 0.696
[2]; first compound 3.162 µM
  relative viability: 0.695
[2]; first compound 10 µM
  relative viability: 0.68
[2]; first compound 31.62 µM
  relative viability: 0.661
[2]; first compound 100 µM
  relative viability: 0.682
Axitinib + Dasatinib; first compound 0.005 µM
  relative viability: 0.625
Axitinib + Dasatinib; first compound 0.01581 µM
  relative viability: 0.635
Axitinib + Dasatinib; first compound 0.05 µM
  relative viability: 0.64
Axitinib + Dasatinib; first compound 0.1581 µM
  relative viability: 0.565
Axitinib + Dasatinib; first compound 0.5 µM
  relative viability: 0.578
Axitinib + Alpelisib; first compound 0.005 µM
  relative viability: 0.724
Axitinib + Alpelisib; first compound 0.01581 µM
  relative viability: 0.795
Axitinib + Alpelisib; first compound 0.05 µM
  relative viability: 0.745
Axitinib + Alpelisib; first compound 0.1581 µM
  relative viability: 0.707
Axitinib + Alpelisib; first compound 0.5 µM
  relative viability: 0.697
